Experimental data reported in PubChem BioAssay (NCI).
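1) Cells in 96-well plates. 2) Compound, 48 h, 5 concentrations. 3) Linear interpolation between surrounding doses. 4) Unreached endpoint = highest concentration. GI50 = concentration required for 50% inhibition of growth. Definition used: TGI = concentration required for complete inhibition of growth.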

Columns and labels:
Assay in all cases: NCI tumour cell line growth inhibition, 48 h
UACC-62 melanoma = test system: UACC-62 melanoma
HL-60(TB) leukemia = test system: HL-60(TB) leukemia
DU-145 prostate = test system: DU-145 prostate
HCT-116 colon = test system: HCT-116 colon
SF-268 CNS = test system: SF-268 CNS
COLO 205 colon = test system: COLO 205 colon
TK-10 renal = test system: TK-10 renal
K-562 leukemia = test system: K-562 leukemia
NCI-H522 lung = test system: NCI-H522 lung

SMILES	TGI (UACC-62 melanoma)	TGI (HL-60(TB) leukemia)	TGI (DU-145 prostate)	TGI (HCT-116 colon)	TGI (SF-268 CNS)	TGI (COLO 205 colon)	TGI (TK-10 renal)	TGI (K-562 leukemia)	GI50 (UACC-62 melanoma)	GI50 (HL-60(TB) leukemia)	GI50 (NCI-H522 lung)	TGI (NCI-H522 lung)	GI50 (DU-145 prostate)	GI50 (HCT-116 colon)	GI50 (SF-268 CNS)	GI50 (COLO 205 colon)	GI50 (TK-10 renal)	GI50 (K-562 leukemia)
C=c1c2ccccc2oc2nc3[nH]c(N)c(C#N)c(N)c3c(=N)c12	> 100 µM	90.3 µM	> 100 µM	> 100 µM	70.9 µM	> 100 µM	> 100 µM	> 100 µM	–	–	–	–	–	–	–	–	–	–
O=C(/C=C/c1cc2ccccc2[nH]c1=O)c1ccc(O)cc1	8.73 µM	6.86 µM	14.3 µM	4.38 µM	23.3 µM	19.7 µM	11.8 µM	> 100 µM	2.88 µM	2.66 µM	1.7 µM	3.29 µM	4.02 µM	1.94 µM	3.76 µM	4.51 µM	3.81 µM	3.89 µM
Cc1ccnc2[nH]c(-c3ccc(Cl)cc3)cc(=O)c12	> 100 µM	4.74 µM	> 100 µM	> 100 µM	> 100 µM	> 21.9 µM	> 100 µM	60 µM	–	–	–	> 100 µM	–	–	–	–	–	–
CSCCC(NOC(=O)Cc1ccccc1)P(=O)(O)c1ccccc1 (stereo not given)	–	> 100 µM	> 100 µM	> 100 µM	–	> 100 µM	> 100 µM	> 100 µM	–	–	–	> 100 µM	–	–	–	–	–	–
Cc1cccc(N=Nc2ccc(O)c(CN(C)C)c2)c1	30.4 µM	54.2 µM	–	> 100 µM	> 100 µM	28.6 µM	72.4 µM	16.1 µM	–	–	–	24.1 µM	–	–	–	–	–	–
COc1ccc(CNCCN2C(=O)c3ccc4c5c(ccc(c35)C2=O)C(=O)N(CCNCc2ccc(OC)c(OC)c2OC)C4=O)c(OC)c1OC	–	–	–	–	–	0.168 µM	–	–	–	–	0.519 µM	1.19 µM	–	–	–	0.0899 µM	–	–
COc1c(C(=O)CC2c3c(cc4oc(C)cc(=O)c4c3OC)OC(=N)C2c2nc3ccccc3[nH]2)c(O)c(OC)c2occc12 (stereo not given)	> 100 µM	> 100 µM	> 100 µM	> 100 µM	> 100 µM	> 100 µM	> 100 µM	> 100 µM	–	–	–	> 100 µM	–	–	–	–	–	–
O=C(NC12CC3CC(CC(C3)C1)C2)n1cnc2c(Cl)ncnc21	> 100 µM	16.9 µM	63.9 µM	> 100 µM	57.4 µM	32.6 µM	> 100 µM	> 100 µM	–	–	–	97.5 µM	–	–	–	–	–	–
CCN1CCC(O)(/C=C/c2ccc(Cl)c(Cl)c2)C(C(=O)/C=C/c2ccc(Cl)c(Cl)c2)C1 (stereo not given)	2.4 µM	0.905 µM	3.24 µM	1.73 µM	2.54 µM	1.74 µM	2.81 µM	8.51 µM	–	–	–	2.33 µM	–	–	–	–	–	–
CCc1cc2c(cc1O)CC[C@@H]1[C@@H]2CC[C@]2(C)[C@@H](O)CC[C@@H]12	–	7.66 µM	24.5 µM	13.4 µM	24.6 µM	31.9 µM	60.9 µM	14.5 µM	–	–	–	27.3 µM	11.1 µM	3.52 µM	–	–	–	–
COc1cc([C@@H]2c3cc4c(cc3[C@H](OC3OC5COC(C(C)C)OC5C(O)C3O)C3COC(=O)[C@@H]32)OCO4)cc(OC)c1OC (stereo not given in full)	26.6 µM	> 25.8 µM	55.5 µM	7.8 µM	> 100 µM	14.6 µM	> 100 µM	> 100 µM	–	–	–	17.7 µM	–	–	–	–	–	–
N#Cc1ccccc1C#C/C=C\C#Cc1ccccn1	37 µM	63.6 µM	83.5 µM	24.3 µM	48.4 µM	73.5 µM	96.2 µM	> 100 µM	–	–	–	36.7 µM	–	–	–	–	–	–
CCCCCCCCC/C=C1/CC(CO)(COC(=O)C2CCCCC2)OC1=O (stereo not given)	> 100 µM	–	> 100 µM	> 100 µM	> 100 µM	> 100 µM	> 100 µM	> 100 µM	–	–	–	> 100 µM	–	–	–	–	–	–
Cc1cc2nc3c(C)c4ccccc4c(C)n3c2cc1C	> 10 µM	6.33 µM	> 10 µM	3.96 µM	> 10 µM	> 10 µM	> 10 µM	> 10 µM	–	–	–	> 10 µM	–	–	–	–	–	–
CC(C)C(C=O)C(O)(C(F)(F)F)C(F)(F)F (stereo not given)	> 100 µM	> 100 µM	> 100 µM	> 100 µM	–	> 100 µM	> 100 µM	> 100 µM	–	–	–	> 100 µM	–	–	–	–	–	–
CCCC(CCC(=O)O)(CCC(=O)O)[N+](=O)[O-]	> 100 µM	> 100 µM	> 100 µM	> 100 µM	> 100 µM	> 100 µM	> 100 µM	> 100 µM	–	–	–	> 100 µM	–	–	–	–	–	–
CN1CN(c2ccccc2)C2(CCN(C(=O)OC(C)(C)C)CC2)C1=O	> 100 µM	> 100 µM	> 100 µM	> 100 µM	> 100 µM	> 100 µM	> 100 µM	> 100 µM	–	–	–	> 100 µM	–	–	–	–	–	–
CN(C)CC(O)CNC(=O)Nc1ccccc1 (stereo not given)	> 100 µM	> 100 µM	> 100 µM	> 100 µM	> 100 µM	> 100 µM	> 100 µM	> 100 µM	–	–	–	–	–	–	–	–	–	–
COc1cc(/C=[N+](\[O-])c2ccccc2Cl)ccc1OC(=S)S	99.7 µM	47.6 µM	> 100 µM	> 100 µM	> 100 µM	51 µM	> 100 µM	> 100 µM	–	–	–	> 100 µM	–	–	–	–	–	–
C=C1C(O)C2OC(=O)C(=C)C2C(OC(=O)/C(C)=C/C)CC2(C)OC2C2OC12 (stereo not given)	48.2 µM	7.44 µM	> 100 µM	> 100 µM	> 100 µM	31.4 µM	47.2 µM	–	–	–	–	15.6 µM	–	–	–	–	–	–
COC(=O)c1cc(NC(=O)Cn2c3ccccc3c3ccccc32)cn1C	73.9 µM	> 100 µM	> 100 µM	> 100 µM	> 100 µM	> 100 µM	> 100 µM	> 100 µM	–	–	–	> 100 µM	–	–	–	–	–	–
COc1cc2c(cc1OC)C/C(=N\O)c1cc(OC)c(OC)cc1/C=C\2	> 58 µM	19.5 µM	> 64 µM	> 39.2 µM	> 100 µM	28.7 µM	> 72.6 µM	> 100 µM	–	–	–	4.8 µM	–	–	–	–	–	–
